Laboratory results published in patent publication EP4740948A1 (Dong Wha Pharm. Co., Ltd., priority 2023, dated 2025).

What was measured:
[1] = test system: G401 cells; test: Cancer cell proliferation inhibition (Cell Counting Kit-8), rhabdoid tumor cell line; assay type: cell-based; conditions: 1000 nM, cultured seven to 11 days; for % inhibition rate G401: 1 µM; for inhibition at 1 µM: Homo sapiens, G-401, 264 h, read-out: % inhibition rate G401
Summary of the method: (§1)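 Cells grown in RPMI1640, McCoy's 5a, L-15 or DMEM with 10% FBS, seeded at 100 to 1,000 cells/well and treated with test substance at 1000 nM for 7 to 11 days. Viability read by CCK-8; % inhibition = {1−(test/control)} × 100.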

[2] = target: EZH1 (Homo sapiens, UniProt Q92800); test: AlphaLISA enzyme activity inhibition, EZH1; assay type: biochemical
Sequence of EZH1 (Q92800 whole entry, species assumed): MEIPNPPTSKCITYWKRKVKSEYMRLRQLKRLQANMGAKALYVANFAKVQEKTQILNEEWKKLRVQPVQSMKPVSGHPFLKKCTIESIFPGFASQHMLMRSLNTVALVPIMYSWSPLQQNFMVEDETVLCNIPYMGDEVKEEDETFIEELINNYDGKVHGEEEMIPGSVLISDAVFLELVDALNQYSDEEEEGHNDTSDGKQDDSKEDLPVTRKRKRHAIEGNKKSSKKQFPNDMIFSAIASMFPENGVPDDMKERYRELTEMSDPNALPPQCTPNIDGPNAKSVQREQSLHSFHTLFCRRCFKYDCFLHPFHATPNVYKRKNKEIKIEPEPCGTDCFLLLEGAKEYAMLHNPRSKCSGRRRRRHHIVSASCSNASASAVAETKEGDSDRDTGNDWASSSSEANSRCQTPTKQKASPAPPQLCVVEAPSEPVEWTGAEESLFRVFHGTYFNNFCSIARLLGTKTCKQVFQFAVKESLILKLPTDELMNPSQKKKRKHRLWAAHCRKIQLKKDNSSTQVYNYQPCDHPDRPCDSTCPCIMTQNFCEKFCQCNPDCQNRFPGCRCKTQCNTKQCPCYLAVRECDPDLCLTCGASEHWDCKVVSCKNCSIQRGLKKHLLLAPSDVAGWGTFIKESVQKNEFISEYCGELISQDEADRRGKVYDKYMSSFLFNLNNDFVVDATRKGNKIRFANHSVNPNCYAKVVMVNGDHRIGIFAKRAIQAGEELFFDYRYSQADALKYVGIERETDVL
Sequence of EZH1 (O75530 whole entry partner, species assumed): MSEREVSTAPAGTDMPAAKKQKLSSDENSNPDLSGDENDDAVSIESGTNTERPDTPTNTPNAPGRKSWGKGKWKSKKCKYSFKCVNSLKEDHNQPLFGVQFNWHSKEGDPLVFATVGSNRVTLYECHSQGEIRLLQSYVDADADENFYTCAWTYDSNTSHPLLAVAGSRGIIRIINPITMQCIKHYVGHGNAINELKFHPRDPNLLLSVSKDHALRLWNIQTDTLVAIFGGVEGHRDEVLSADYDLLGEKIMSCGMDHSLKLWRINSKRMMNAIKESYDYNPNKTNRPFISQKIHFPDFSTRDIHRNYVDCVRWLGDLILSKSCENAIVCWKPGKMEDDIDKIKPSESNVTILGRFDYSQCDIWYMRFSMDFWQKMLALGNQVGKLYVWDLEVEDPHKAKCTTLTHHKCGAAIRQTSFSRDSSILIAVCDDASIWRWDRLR
Sequence of EZH1 (Q15022 whole entry partner, species assumed): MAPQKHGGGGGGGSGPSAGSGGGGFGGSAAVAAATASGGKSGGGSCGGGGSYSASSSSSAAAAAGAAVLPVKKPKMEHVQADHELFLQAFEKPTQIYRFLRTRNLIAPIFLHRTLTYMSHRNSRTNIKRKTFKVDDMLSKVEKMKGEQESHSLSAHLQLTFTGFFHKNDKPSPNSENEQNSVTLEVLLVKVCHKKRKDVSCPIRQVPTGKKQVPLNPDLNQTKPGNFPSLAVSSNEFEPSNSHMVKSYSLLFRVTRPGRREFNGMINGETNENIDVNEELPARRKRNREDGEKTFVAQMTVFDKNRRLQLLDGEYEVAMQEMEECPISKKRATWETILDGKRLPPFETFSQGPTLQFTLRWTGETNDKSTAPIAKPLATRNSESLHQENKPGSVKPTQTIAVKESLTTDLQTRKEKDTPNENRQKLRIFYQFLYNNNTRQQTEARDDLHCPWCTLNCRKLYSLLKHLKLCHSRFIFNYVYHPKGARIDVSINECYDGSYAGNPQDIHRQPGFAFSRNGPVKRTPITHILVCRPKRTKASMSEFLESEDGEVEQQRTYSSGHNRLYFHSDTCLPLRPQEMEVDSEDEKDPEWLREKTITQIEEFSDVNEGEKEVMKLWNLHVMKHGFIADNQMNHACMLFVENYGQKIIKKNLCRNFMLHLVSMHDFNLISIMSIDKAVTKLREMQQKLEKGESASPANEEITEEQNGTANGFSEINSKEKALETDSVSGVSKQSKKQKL
Summary of the method: (§2)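 EZH1 or EZH2 was mixed with compound at 5 nM or 10 nM final in 20 mM Tris pH 8.0, 0.1% BSA, 0.5 mM DTT, then histone H3 peptide and SAM were added. After 2 h reaction, AlphaLISA acceptor and donor beads detected methylation; inhibition rate was calculated against DMSO control.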

[3] = test system: MKN-45 cells; test: Cancer cell proliferation inhibition (Cell Counting Kit-8), gastric cancer cell line; assay type: cell-based; conditions: 1000 nM, cultured seven to 11 days; for inhibition at 1 µM: Homo sapiens, MKN-45, 264 h, read-out: % inhibition rate MKN -45
Summary of the method: as §1

[4] = target: EZH2 (Homo sapiens, UniProt Q15910); test: AlphaLISA enzyme activity inhibition, EZH2; assay type: biochemical
Sequence of EZH2 (Q15910 whole entry, species assumed): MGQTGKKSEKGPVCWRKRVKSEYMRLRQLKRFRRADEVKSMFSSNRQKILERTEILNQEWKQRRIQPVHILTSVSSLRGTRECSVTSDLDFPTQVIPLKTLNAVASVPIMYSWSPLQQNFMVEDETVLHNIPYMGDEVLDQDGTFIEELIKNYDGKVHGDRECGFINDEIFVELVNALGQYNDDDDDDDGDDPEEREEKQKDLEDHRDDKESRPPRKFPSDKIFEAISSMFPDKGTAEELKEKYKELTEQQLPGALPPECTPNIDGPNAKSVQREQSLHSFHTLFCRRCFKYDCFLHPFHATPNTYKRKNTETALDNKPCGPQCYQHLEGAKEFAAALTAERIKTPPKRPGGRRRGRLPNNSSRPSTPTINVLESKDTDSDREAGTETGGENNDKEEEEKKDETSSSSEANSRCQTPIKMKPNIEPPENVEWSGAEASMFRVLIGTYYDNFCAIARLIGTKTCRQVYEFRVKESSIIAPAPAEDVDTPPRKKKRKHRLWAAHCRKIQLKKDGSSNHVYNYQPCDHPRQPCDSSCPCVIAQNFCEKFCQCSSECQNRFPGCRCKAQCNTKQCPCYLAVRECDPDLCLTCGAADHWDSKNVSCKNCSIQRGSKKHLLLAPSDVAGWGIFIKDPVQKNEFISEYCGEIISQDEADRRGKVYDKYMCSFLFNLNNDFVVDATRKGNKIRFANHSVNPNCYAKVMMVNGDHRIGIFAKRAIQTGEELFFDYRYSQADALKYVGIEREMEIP
Sequence of EZH2 (O75530 whole entry partner, species assumed): as the sequence (O75530 whole entry partner, species assumed) above
Sequence of EZH2 (Q15022 whole entry partner, species assumed): as the sequence (Q15022 whole entry partner, species assumed) above
Summary of the method: as §2

[5] = test system: NCI-H1299 cells; test: Cancer cell proliferation inhibition (Cell Counting Kit-8), lung cancer cell line; assay type: cell-based; conditions: 1000 nM, cultured seven to 11 days; for inhibition at 1 µM: Homo sapiens, NCI-H1299, 264 h, read-out: % inhibition rate NCI-H129 9
Summary of the method: (§3)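 Cells grown in RPMI1640, McCoy's 5a, L-15 or DMEM with 10% fetal bovine serum, seeded at 100 to 1,000 cells per well, then exposed to test compound at 1000 nM for seven to 11 days. Viability read by CCK-8; % inhibition = {1−(test/control)} × 100.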

[6] = test system: Lovo cells; test: Cancer cell proliferation inhibition (Cell Counting Kit-8), colorectal cancer cell line; assay type: cell-based; conditions: 1000 nM, cultured seven to 11 days; for inhibition at 1 µM: Homo sapiens, LoVo, 264 h, read-out: % inhibition rate LoVo
Summary of the method: as §3

[7] = test system: SW-13 cells; test: Cancer cell proliferation inhibition (Cell Counting Kit-8), adrenal cancer cell line; assay type: cell-based; conditions: 1000 nM, cultured seven to 11 days; for inhibition at 1 µM: Homo sapiens, SW13, 264 h, read-out: % inhibition rate SW-13
Summary of the method: as §3

[8] = test system: MIA-PaCa-2 cells; test: Cancer cell proliferation inhibition (Cell Counting Kit-8), pancreatic cancer cell line; assay type: cell-based; conditions: 1000 nM, cultured seven to 11 days; for inhibition at 1 µM: Homo sapiens, MIA PaCa-2, 264 h, read-out: % inhibition rate MIA-Paca2
Summary of the method: as §3

| inhibition at 0.005 µM ([2]; 5nM test substance) | inhibition at 0.01 µM ([2]; 10nM test substance) | inhibition at 0.005 µM ([4]; 5nM test substance) | inhibition at 0.01 µM ([4]; 10nM test substance) | Structure (SMILES) | % inhibition rate G401 [1] | inhibition at 1 µM [3] | inhibition at 1 µM [5] | inhibition at 1 µM [6] | inhibition at 1 µM [7] | inhibition at 1 µM [8] | other results |
| --- | --- | --- | --- | --- | --- | --- | --- | --- | --- | --- | --- |
| 68.5% | 82.8% | 96.1% | 99.5% | CSc1cc(C)[nH]c(=O)c1CNC(=O)c1cc(-c2cnc(N3CCOCC3)nc2)c2c(c1C)OC(C)(C1CCN(CC(F)F)CC1)O2 (single isomer, unassigned) [Compound 71, 2-(1-(2,2-difluoroethyl)piperidin-4-yl)-2,4-dimethyl-N-((6-methyl-4-(methylthio)-2-oxo-1,2-dihydropyridin-3-yl)methyl)-7-(2-morpholinopyrimidin-5-yl)benzo[d][1,3]dioxole-5-carboxamide] | +++ (+++: ≥70%) | 30 to 70% | 30 to 70% | ≥ 70% | 30 to 70% | ≤ 30% | – |
| 75.7% | 88% | 99.2% | 99.5% | CCN1CCC(C2(C)Oc3c(-c4cnc(N5CCOCC5)nc4)cc(C(=O)NCc4c(SC)cc(C)[nH]c4=O)c(C)c3O2)CC1 (single isomer, unassigned) [Compound 73, 2-(1-ethylpiperidin-4-yl)-2,4-dimethyl-N-((6-methyl-4-(methylthio)-2-oxo-1,2-dihydropyridin-3-yl)methyl)-7-(2-morpholinopyrimidin-5-yl)benzo[d][1,3]dioxole-5-carboxamide] | +++ (+++: ≥70%) | 30 to 70% | ≤ 30% | 30 to 70% | 30 to 70% | ≤ 30% | – |
| 79% | 96.2% | 99.5% | 99.6% | CCN1CCN(c2ncc(-c3cc(C(=O)NCc4c(SC)cc(C)[nH]c4=O)c(C)c4c3OC(C)(C3CCN(CC(F)(F)F)CC3)O4)cn2)CC1 (single isomer, unassigned) [Compound 76, 7-(2-(4-ethylpiperazin-1-yl)pyrimidin-5-yl)-2,4-dimethyl-N-((6-methyl-4-(methylthio)-2-oxo-1,2-dihydropyridin-3-yl)methyl)-2-(1-(2,2,2-trifluoroethyl)piperidin-4-yl)benzo[d][1,3]dioxole-5-carboxamide] | +++ (+++: ≥70%) | 30 to 70% | ≤ 30% | – | 30 to 70% | ≤ 30% | % inhibition rate LoVo ([6]; 1 µM): +++ (+++: ≥70%) |
| – | – | 97.1% | 99.5% | CCN(C)c1ccc(-c2cc(C(=O)NCc3c(SC)cc(C)[nH]c3=O)c(C)c3c2OC(C)(C2CCN(CC(F)(F)F)CC2)O3)cn1 (single isomer, unassigned) [Compound 79, 7-(2-(ethyl(methyl)amino)pyridin-5-yl)-2,4-dimethyl-N-((6-methyl-4-(methylthio)-2-oxo-1,2-dihydropyridin-3-yl)methyl)-2-(1-(2,2,2-trifluoroethyl)piperidin-4-yl)benzo[d][1,3]dioxole-5-carboxamide] | +++ (+++: ≥70%) | 30 to 70% | 30 to 70% | ≥ 70% | 30 to 70% | ≤ 30% | Enzyme inhibition % EZH1 ([2]; 5nM test substance, 0.005 µM): 71.9%; Enzyme inhibition % EZH1 ([2]; 10nM test substance, 0.01 µM): 87.4% |
| 80.4% | 90.8% | 99.2% | 99.8% | CCN(C)c1ncc(-c2cc(C(=O)NCc3c(SC)cc(C)[nH]c3=O)c(C)c3c2OC(C)(C2CCN(CC(F)F)CC2)O3)cn1 (single isomer, unassigned) [Compound 81, 2-(1-(2,2-difluoroethyl)piperidin-4-yl)-7-(2-(ethyl(methyl)amino)pyrimidin-5-yl)-2,4-dimethyl-N-((6-methyl-4-(methylthio)-2-oxo-1,2-dihydropyridin-3-yl)methyl)benzo[d][1,3]dioxole-5-carboxamide] | +++ (+++: ≥70%) | 30 to 70% | ≤ 30% | ≥ 70% | 30 to 70% | ≤ 30% | – |
| 45.3% | 78.8% | 99.2% | 99.4% | CCN1CCC(C2(C)Oc3c(-c4cnc(N(C)CC)nc4)cc(C(=O)NCc4c(SC)cc(C)[nH]c4=O)c(C)c3O2)CC1 (single isomer, unassigned) [Compound 83, 7-(2-(ethyl(methyl)amino)pyrimidin-5-yl)-2-(1-ethylpiperidin-4-yl)-2,4-dimethyl-N-((6-methyl-4-(methylthio)-2-oxo-1,2-dihydropyridin-3-yl)methyl)benzo[d][1,3]dioxole-5-carboxamide] | +++ (+++: ≥70%) | ≤ 30% | ≤ 30% | – | 30 to 70% | ≤ 30% | % inhibition rate LoVo ([6]; 1 µM): +++ (+++: ≥70%) |
| – | – | – | – | CCN(C)c1ccc(-c2cc(C(=O)NCc3c(SC)cc(C)[nH]c3=O)c(C)c3c2OC(C)(C2CCN(CC(F)(F)F)CC2)O3)cn1 (single isomer, unassigned) [Compound 86, 7-(6-(ethyl(methyl)amino)pyridin-3-yl)-2,4-dimethyl-N-((6-methyl-4-(methylthio)-2-oxo-1,2-dihydropyridin-3-yl)methyl)-2-(1-(2,2,2-trifluoroethyl)piperidin-4-yl)benzo[d][1,3]dioxole-5-carboxamide] | +++ (+++: ≥70%) | – | – | – | – | – | Enzyme inhibition % EZH1 ([2]; 5nM test substance, 0.005 µM): 42.0%; Enzyme inhibition % EZH1 ([2]; 10nM test substance, 0.01 µM): 65.9%; % inhibition rate MKN -45 ([3]; 1 µM): ++ (++: more than 30% and less than 70%); Enzyme inhibition % EZH2 ([4]; 5nM test substance, 0.005 µM): 98.3%; Enzyme inhibition % EZH2 ([4]; 10nM test substance, 0.01 µM): 99.2%; % inhibition rate NCI-H129 9 ([5]; 1 µM): + (+: ≤30%); % inhibition rate LoVo [6]: +++ (+++: ≥70%); % inhibition rate SW-13 ([7]; 1 µM): + (+: ≤30%); % inhibition rate MIA-Paca2 [8]: + (+: ≤30%) |
| 45.2% | 62% | 99.5% | 99.9% | CCN(C)c1ccc(-c2cc(C(=O)NCc3c(SC)cc(C)[nH]c3=O)c(C)c3c2OC(C)(C2CCN(CC(F)F)CC2)O3)cn1 (single isomer, unassigned) [Compound 88, 2-(1-(2,2-difluoroethyl)piperidin-4-yl)-7-(6-(ethyl(methyl)amino)pyridin-3-yl)-2,4-dimethyl-N-((6-methyl-4-(methylthio)-2-oxo-1,2-dihydropyridin-3-yl)methyl)benzo[d][1,3]dioxole-5-carboxamide] | – | 30 to 70% | ≤ 30% | ≥ 70% | 30 to 70% | ≤ 30% | inhibition at 1 µM [1]: ≥ 70% |
| 40% | 71% | 99.5% | 100% | CCN1CCC(C2(C)Oc3c(-c4ccc(N(C)CC)nc4)cc(C(=O)NCc4c(SC)cc(C)[nH]c4=O)c(C)c3O2)CC1 (single isomer, unassigned) [Compound 89, 7-(6-(ethyl(methyl)amino)pyridin-3-yl)-2-(1-ethylpiperidin-4-yl)-2,4-dimethyl-N-((6-methyl-4-(methylthio)-2-oxo-1,2-dihydropyridin-3-yl)methyl)benzo[d][1,3]dioxole-5-carboxamide] | – | ≤ 30% | ≤ 30% | ≥ 70% | 30 to 70% | ≤ 30% | inhibition at 1 µM [1]: ≥ 70% |
| 39.3% | – | – | – | CSc1cc(C)[nH]c(=O)c1CNC(=O)c1cc(-c2ccc(N3C[C@@H](C)O[C@@H](C)C3)nc2)c2c(c1C)OC(C)([C@H]1CC[C@H](N(C)CC(F)(F)F)CC1)O2 (single isomer, unassigned) [Compound 107] | +++ (+++: ≥70%) | ≤ 30% | ≤ 30% | ≥ 70% | ≤ 30% | ≤ 30% | Enzyme inhibition % EZH2 ([4]; 5nM test substance, 0.005 µM): 41.7% |
| – | – | – | – | CSc1cc(C)[nH]c(=O)c1CNC(=O)c1cc(-c2ccc(N3C[C@@H](C)O[C@@H](C)C3)nc2)c2c(c1C)OC(C)([C@H]1CC[C@H](N(C)CC(F)(F)F)CC1)O2 (single isomer, unassigned) [Compound 108] | + (+: ≤30%) | – | – | – | – | – | Enzyme inhibition % EZH1 ([2]; 5nM test substance, 0.005 µM): 20.4%; % inhibition rate MKN -45 [3]: + (+: ≤30%); Enzyme inhibition % EZH2 ([4]; 5nM test substance, 0.005 µM): 4.3%; % inhibition rate NCI-H129 9 [5]: + (+: ≤30%); % inhibition rate LoVo [6]: +++ (+++: ≥70%); % inhibition rate SW-13 [7]: + (+: ≤30%); % inhibition rate MIA-Paca2 [8]: + (+: ≤30%) |
